Experimental data: PubChem BioAssay AID248 (DTP/NCI, 2004)
“And” between values parts separate entries of the source, which are not always exact repeats. Equal values may be shown once. Inconclusive results and toxic doses are left out. No stated cut-off is given here; in the data, active means T/C of 150% or more; inactive means T/C below 125%.

Tested on: L1210 leukemia ip in BDF1 mice, survival T/C
Test: NCI In Vivo Anticancer Drug Screen. Data for tumor model L1210 Leukemia (intraperitoneal) in B6D2F1 (BDF1) mice
Settings: endpoint: mean survival time, higher = longer survival
Procedure, shortened: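 Tumor was transplanted into mice, which were then dosed with test compound or vehicle alone. Survival was recorded for each group, and the treated figure was expressed relative to the control figure.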

[1] = dose: 100.0 mg/kg/injection, schedule: Q01DX001 (ip), vehicle: saline
[2] = dose: 200.0 mg/kg/injection, schedule: Q01DX001 (ip), vehicle: saline
[3] = dose: 400.0 mg/kg/injection, schedule: Q01DX001 (ip), vehicle: saline
[4] = dose: 100.0 mg/kg/injection, schedule: Q04DX002 (ip), vehicle: saline with Tween-80
[5] = dose: 200.0 mg/kg/injection, schedule: Q04DX002 (ip), vehicle: saline with Tween-80
[6] = dose: 400.0 mg/kg/injection, schedule: Q04DX002 (ip), vehicle: saline with Tween-80
[7] = dose: 100.0 mg/kg/injection, schedule: Q01DX009 (ip), vehicle: Klucel (hydroxypropylcellulose) (HPC)
[8] = dose: 100.0 mg/kg/injection, schedule: Q04DX003 (ip), vehicle: Klucel (hydroxypropylcellulose) (HPC)
[9] = dose: 200.0 mg/kg/injection, schedule: Q01DX009 (ip), vehicle: Klucel (hydroxypropylcellulose) (HPC)
[10] = dose: 200.0 mg/kg/injection, schedule: Q04DX003 (ip), vehicle: Klucel (hydroxypropylcellulose) (HPC)
[11] = dose: 400.0 mg/kg/injection, schedule: Q01DX009 (ip), vehicle: Klucel (hydroxypropylcellulose) (HPC)
[12] = dose: 400.0 mg/kg/injection, schedule: Q04DX003 (ip), vehicle: Klucel (hydroxypropylcellulose) (HPC)
[13] = dose: 100.0 mg/kg/injection, schedule: Q01DX001 (ip), vehicle: saline with Tween-80
[14] = dose: 200.0 mg/kg/injection, schedule: Q01DX001 (ip), vehicle: saline with Tween-80
[15] = dose: 400.0 mg/kg/injection, schedule: Q01DX001 (ip), vehicle: saline with Tween-80
[16] = dose: 100.0 mg/kg/injection, schedule: Q01DX009 (ip), vehicle: saline with Tween-80
[17] = dose: 200.0 mg/kg/injection, schedule: Q01DX009 (ip), vehicle: saline with Tween-80
[18] = dose: 400.0 mg/kg/injection, schedule: Q01DX009 (ip), vehicle: saline with Tween-80
[19] = dose: 100.0 mg/kg/injection, schedule: Q04DX002 (ip), vehicle: Klucel (hydroxypropylcellulose) (HPC)
[20] = dose: 200.0 mg/kg/injection, schedule: Q04DX002 (ip), vehicle: Klucel (hydroxypropylcellulose) (HPC)
[21] = dose: 400.0 mg/kg/injection, schedule: Q04DX002 (ip), vehicle: Klucel (hydroxypropylcellulose) (HPC)

Measured: T/C

Cc1ccc(C(c2ccc(C)c(C)c2)C(O)C(O)C(O)CO)cc1C (stereo not given)
inactive: [1] 94 % of control and 100 % of control | [2] 102 % of control and 96 % of control | [3] 97 % of control and 96 % of control

O=C(O)/C=C\C(=O)Nc1nc(NC(=O)/C=C/C(=O)O)cc(=O)[nH]1
inactive: [1] 97 % of control | [2] 100 % of control | [3] 103 % of control

N#CCCS(=O)(=O)CCc1ccccc1
inactive: dose: 75.0 mg/kg/injection, schedule: Q01DX009 (ip), vehicle: Klucel (hydroxypropylcellulose) (HPC) 96 % of control | dose: 150.0 mg/kg/injection, schedule: Q01DX009 (ip), vehicle: Klucel (hydroxypropylcellulose) (HPC) 96 % of control | dose: 300.0 mg/kg/injection, schedule: Q01DX009 (ip), vehicle: Klucel (hydroxypropylcellulose) (HPC) 105 % of control

N#CCCN(Cc1cccnc1)CN1C(=O)c2ccccc2C1=O
inactive: [4] 91 % of control | [5] 97 % of control | [6] 102 % of control

Nc1ccc(S(=O)(=O)Nc2ccc(I)cc2)cc1
inactive: [7] 100 % of control | [8] 100 % of control | [9] 96 % of control | [10] 97 % of control | [11] 93 % of control | [12] 92 % of control

Cc1ccc(C)c(NC(=O)Nc2cccc3ccccc23)c1
inactive: dose: 100.0 mg/kg/injection, schedule: Q01DX009 (ip), vehicle: gum acacia 96 % of control | [8] 89 % of control | dose: 200.0 mg/kg/injection, schedule: Q01DX009 (ip), vehicle: gum acacia 100 % of control | [10] 93 % of control | dose: 400.0 mg/kg/injection, schedule: Q01DX009 (ip), vehicle: gum acacia 91 % of control | [12] 98 % of control

O=C1c2ccccc2C(F)(F)c2ccccc21
inactive: [7] 110 % of control | [9] 100 % of control | [11] 101 % of control

N/C(=N\[N+](=O)[O-])N(Cc1ccccc1)/N=C/c1ccccc1
inactive: dose: 87.5 mg/kg/injection, schedule: Q04DX003 (ip), vehicle: Klucel (hydroxypropylcellulose) (HPC) 92 % of control | dose: 175.0 mg/kg/injection, schedule: Q04DX003 (ip), vehicle: Klucel (hydroxypropylcellulose) (HPC) 92 % of control | dose: 350.0 mg/kg/injection, schedule: Q04DX003 (ip), vehicle: Klucel (hydroxypropylcellulose) (HPC) 88 % of control

O=C(O)C(Cc1ccc(O)cc1)NC(=O)C(CSC(c1ccccc1)(c1ccccc1)c1ccccc1)NC(c1ccccc1)(c1ccccc1)c1ccccc1 (stereo not given)
inactive: dose: 50.0 mg/kg/injection, schedule: Q01DX009 (ip), vehicle: saline 92 % of control | dose: 100.0 mg/kg/injection, schedule: Q01DX009 (ip), vehicle: saline 95 % of control | dose: 200.0 mg/kg/injection, schedule: Q01DX009 (ip), vehicle: saline 100 % of control | dose: 400.0 mg/kg/injection, schedule: Q01DX009 (ip), vehicle: saline 95 % of control

Cc1cc(=O)[nH]c2c(OCOc3cccc4c(C)cc(=O)[nH]c34)cccc12
inactive: [8] 97 % of control | [10] 100 % of control | [12] 94 % of control

COc1cc(C)c(C)cc1/C(C)=C(/C)C(=O)O (tested in a mixture with another compound)
inactive: [13] 100 % of control | [14] 100 % of control | [15] 103 % of control

CCN(CC)C(/C=C/c1ccccc1)=N\S(=O)(=O)c1ccccc1
inactive: dose: 50.0 mg/kg/injection, schedule: Q01DX001 (ip), vehicle: Klucel (hydroxypropylcellulose) (HPC) 102 % of control | dose: 100.0 mg/kg/injection, schedule: Q01DX001 (ip), vehicle: Klucel (hydroxypropylcellulose) (HPC) 105 % of control | dose: 200.0 mg/kg/injection, schedule: Q01DX001 (ip), vehicle: Klucel (hydroxypropylcellulose) (HPC) 104 % of control

O=S1(=O)CCCC1=C(c1ccccc1)c1ccccc1
inactive: [16] 105 % of control | [17] 100 % of control | [18] 107 % of control

CCO/C(C)=N/OC(=O)c1cc(Cl)ccc1Cl
inactive: [19] 98 % of control | [20] 110 % of control | [21] 113 % of control

Cc1cnc(Cl)[nH]1 (tested in a mixture with another compound)
inactive: [4] 100 % of control | [5] 113 % of control | [6] 113 % of control

O=C(O)COc1ccccc1CO
inactive: [13] 91 % of control | [16] 88 % of control | [14] 94 % of control | [17] 94 % of control | [15] 92 % of control | [18] 91 % of control

NC(=O)C(O)C(O)C(O)C(O)CCl (stereo not given)
inactive: dose: 50.0 mg/kg/injection, schedule: Q04DX002 (ip), vehicle: saline with Tween-80 96 % of control | [4] 93 % of control | [5] 98 % of control | [6] 96 % of control

CC1(C)OC2C(CNCCCl)OC(OCc3ccccc3)C2O1 (stereo not given)
inactive: dose: 50.0 mg/kg/injection, schedule: Q04DX003 (ip), vehicle: saline 96 % of control | dose: 100.0 mg/kg/injection, schedule: Q04DX003 (ip), vehicle: saline 96 % of control

O=C(/C=C\c1ccc(C(=O)Nc2ccc(C3=NCCN3)cc2)cc1)Nc1ccc(C2=NCCN2)cc1
inactive: dose: 6.0 mg/kg/injection, schedule: Q01DX Z (ip), vehicle: water 110 % of control | dose: 11.0 mg/kg/injection, schedule: Q01DX Z (ip), vehicle: water 102 % of control | dose: 15.0 mg/kg/injection, schedule: Q01DX Z (ip), vehicle: saline 114 % of control | dose: 22.0 mg/kg/injection, schedule: Q01DX Z (ip), vehicle: water 104 % of control | dose: 30.0 mg/kg/injection, schedule: Q01DX Z (ip), vehicle: saline 120 % of control | dose: 45.0 mg/kg/injection, schedule: Q01DX Z (ip), vehicle: water 107 % of control | dose: 60.0 mg/kg/injection, schedule: Q01DX Z (ip), vehicle: saline 122 % of control | dose: 120.0 mg/kg/injection, schedule: Q01DX Z (ip), vehicle: saline 113 % of control | dose: 240.0 mg/kg/injection, schedule: Q01DX Z (ip), vehicle: saline 117 % of control | dose: 480.0 mg/kg/injection, schedule: Q01DX Z (ip), vehicle: saline 103 % of control

Cc1ccc(Nc2ccc(C)cc2[N+](=O)[O-])cc1
inactive: dose: 100.0 mg/kg/injection, schedule: Q01DX001 (ip), vehicle: carboxymethylcellulose (CMC) 105 % of control | dose: 200.0 mg/kg/injection, schedule: Q01DX001 (ip), vehicle: carboxymethylcellulose (CMC) 102 % of control | dose: 400.0 mg/kg/injection, schedule: Q01DX001 (ip), vehicle: carboxymethylcellulose (CMC) 94 % of control

OC1CCC2CCC(O)CC2C1 (stereo not given)
inactive: dose: 100.0 mg/kg/injection, schedule: Q04DX003 (ip), vehicle: saline with Tween-80 105 % of control | dose: 200.0 mg/kg/injection, schedule: Q04DX003 (ip), vehicle: saline with Tween-80 105 % of control | dose: 400.0 mg/kg/injection, schedule: Q04DX003 (ip), vehicle: saline with Tween-80 92 % of control

COc1ccccc1C[N+](C)(C)C
inactive: dose: 20.0 mg/kg/injection, schedule: Q01DX001 (ip), vehicle: saline 95 % of control | dose: 20.0 mg/kg/injection, schedule: Q01DX009 (ip), vehicle: saline 108 % of control | dose: 40.0 mg/kg/injection, schedule: Q01DX001 (ip), vehicle: saline 97 % of control | dose: 40.0 mg/kg/injection, schedule: Q01DX009 (ip), vehicle: saline 108 % of control | dose: 80.0 mg/kg/injection, schedule: Q01DX001 (ip), vehicle: saline 102 % of control

CS(=O)(=O)NCC1OC(n2cnc3c(N)ncnc32)C(O)C1O (stereo not given)
inactive: [1] 104 % of control | [2] 96 % of control | [3] 98 % of control

O=C(O)c1cccc2c1C(=O)c1c(Cl)cccc1C2=O
inactive: [19] 99 % of control | [20] 99 % of control | [21] 99 % of control

O=C(O)CSc1nc2ccccc2s1
inactive: [16] 107 % of control

COc1ccccc1NC(=O)NC1CCCCC1
inactive: [7] 100 % of control | [9] 100 % of control | [11] 102 % of control
